Series [1] in a line: accelerated stability study of anhydrous azithromycin, storage at 40±2° C. at 75±5% relative humidity. Type of series: physicochemical.
The nature of series [2]: stability study of anhydrous azithromycin, normal storage at 25±2° C. at 60±5% relative humidity. Type of series: physicochemical.
[3] abbreviates: after 3 months of storage at 40±2° C. at 75±5% relative humidity.
Setting [4] is: after 12 months of storage at 25±2° C. at 60±5% relative humidity.

Results on one compound are retold here after patent US20090093420A1, “PROCESSES FOR THE PREPARATION OF AZITHROMYCIN” (WOCKHARDT LIMITED, priority 2006, published 2009).

Bounds are passed on as bounds.

Turning to `CCC1OC(=O)C(C)C(O[C@H]2C[C@@](C)(OC)[C@@H](O)C(C)O2)C(C)[C@@H](OC2OC(C)CC(N(C)C)[C@H]2O)[C@@](C)(O)C[C@@H](C)CN(C)[C@H](C)[C@@H](O)[C@]1(C)O` (stereo partly drawn) [anhydrous azithromycin, (2R,3S,4R,5R,5R,10R,11R,12S,13S,14R)-13-[(2,6-dideoxy-3-C-methyl-3-O-methyl-a-L-ribo-hexopyranosyl)oxy]-2-ethyl-3,4,10-trihydroxy-3,5,6,8,10,12,14-heptamethyl-11-[[3,4,6-trideoxy-3-(dimethylamino)-b-D-xylo-hexopyranosyl]oxy]-1-oxa-6-azacyclopentadecan-15-one], the “time for which the form is stable” value in series [1] (accelerated stability studies) is “more than 3 months”; in series [2] (normal stability studies) it was “more than 18 months”. Further, the “moisture content after storage” value in series [1] (setting [3]) and in series [2] (setting [4]) was at most 0.6% in each case. Also, the results for the “purity by HPLC after storage” value in series [1] (setting [3]) and in series [2] (setting [4]) were “more than 98%” and “more than 99%”, respectively. The “change in the related substance content on storage” value in series [1] (stored at 40±2° C. at 75±5% relative humidity) and in series [2] (stored at 25±2° C. at 60±5% relative humidity) was “no change” in each case.
